Measured values published in US20150374646A1, “TREATMENT OF CANCER AND OTHER CONDITIONS USING A TRANSCRIPTION FACTOR MODULATOR” (C & C BIOPHARMA, LLC, priority 2013, published 2015).

How the values were obtained:
MOLT-4 = experiment: Leukemia cell growth inhibition, CellTiter-Glo (Example 1); format: cell-based; settings: Homo sapiens; MOLT-4, ALL (T-cell); 72 hours
Description: (§2) Various human leukemia cells were grown to the logarithmic growth phase and seeded into 24-well plates. […] Treated cells were further incubated for 72 hours and then were examined for cell proliferation. Cell proliferation was determined using the CellTiter-Glo Luminescence Cell Viability assay (Promega Corporation, Madison, Wis.) according to the manufacturer's protocol. The calculated inhibition rate was determined with the following formula: Inhibition rate (%)=(1−Luminescence of experimental group/Luminescence of control group)×100. IC50 is the calculated concentration of a compound needed to inhibit half of the maximum cell growth (equivalent to cell growth in control group) based on the corresponding dose-response curve under the described experimental conditions.

Nalm-6 = experiment: as above; format: cell-based, human
Description: as §2

RCH-ACV = experiment: as above; format: cell-based; settings: Homo sapiens, ALL (B-cell), 72 hours
Description: as §2

MV4-11 = experiment: as above; format: cell-based; settings: Homo sapiens; MV4-11, B-myelomonocytic (Biphenotypic B-cell leukemia); 72 hours
Description: as §2

SR = experiment: as above; format: cell-based; settings: Homo sapiens, Lymphoma, 72 hours
Description: as §2

Caski = experiment: Cancer cell line growth inhibition, CellTiter-Glo (Example 3); format: cell-based; settings: Homo sapiens, Ca-Ski, Cervical, 72 hours, read-out: IC50
Description: (§1) YT30 was tested for growth inhibition against 67 human cancer cell lines derived from diverse tissues including the National Cancer Institute human cancer cell lines (NCI-60). […] Cells in different wells were treated with various concentrations of YT30, YT86, YT88, or YT128. […] Cell viabilities were determined by the CellTiter-Glo Luminescence Cell Viability assay kit (Promega Corporation, Madison, Wis.) according to manufacturer's protocol.

HL60 = experiment: as above; format: cell-based; settings: Homo sapiens, HL-60, Leukemia, 72 hours, read-out: IC50
Description: as §1

HOP-92 = experiment: as above; format: cell-based; settings: Homo sapiens, NSCLC, 72 hours
Description: as §1

HeLa = experiment: as above; format: cell-based; settings: Homo sapiens, Cervical, 72 hours, read-out: IC50
Description: as §1

HepG2 = experiment: as above; format: cell-based; settings: Homo sapiens, Liver, 72 hours
Description: as §1

MCF7 = experiment: as above; format: cell-based; settings: Homo sapiens, Breast, 72 hours, read-out: IC50
Description: as §1

MDA-MB-435 = experiment: as above; format: cell-based; settings: Homo sapiens, Melanoma, 72 hours, read-out: IC50
Description: as §1

NCI-H460 = experiment: as above; format: cell-based; settings: Homo sapiens, NSCLC, 72 hours
Description: as §1

OVCAR-3 = experiment: as above; format: cell-based; settings: Homo sapiens, Ovary, 72 hours, read-out: IC50
Description: as §1

OVCAR-8 = experiment: as above; format: cell-based; settings: Homo sapiens, Ovary, 72 hours
Description: as §1

RCH-HCV = experiment: as above; format: cell-based; settings: Homo sapiens, Leukemia, 72 hours
Description: as §1

SEM cells = experiment: as above; format: cell-based; settings: Homo sapiens, Leukemia, 72 hours
Description: as §1

SF-295 = experiment: as above; format: cell-based; settings: Homo sapiens, CNS, 72 hours, read-out: IC50
Description: as §1

SF-539 = experiment: as above; format: cell-based; settings: Homo sapiens, CNS, 72 hours, read-out: IC50
Description: as §1

SK-MEL-5 = experiment: as above; format: cell-based; settings: Homo sapiens, Melanoma, 72 hours
Description: as §1

SK-OV-3 = experiment: as above; format: cell-based; settings: Homo sapiens, Ovary, 72 hours
Description: as §1

SW-620 = experiment: as above; format: cell-based; settings: Homo sapiens, Colon, 72 hours
Description: as §1

UO-31 = experiment: as above; format: cell-based; settings: Homo sapiens, Renal, 72 hours, read-out: IC50
Description: as §1

siHa = experiment: as above; format: cell-based; settings: Homo sapiens, Cervical, 72 hours, read-out: IC50
Description: as §1

MV4-11 cells = experiment: Subcutaneous MV4-11 leukemia tumor growth in NOD/SCID mice (Example 5); format: in vivo
Description: Female Nonobese Diabetic/Severe Combined Immunodeficiency (NOD/SCID) mice that were 4-6 weeks old were used in the experiment. The mice were fed under specific pathogen free (SPF) conditions. Food and water were available to the mice at will. A suspension of 1×10^7 cells per mouse B-myelomonocytic leukemia MV4-11 cells (0.2 mL) in logarithmic phase were inoculated subcutaneously into the right back of the NOD/SCID nude mice.
The general conditions of the mice and the growth of the transplanted tumor were monitored. […] The control group received an intraperitoneal (IP) injection of 0.2 mL of solvent (20% DMSO, 80% of 20% w/v (2-hydroxypropyl)-β-cyclodextrin made in PBS). […] The high dosage group received an intraperitoneal injection of 50 mg/kg/day of YT30 (0.2 mL in volume) suspended in solvent (20% DMSO, 80% of 20% w/v (2-hydroxypropyl)-β-cyclodextrin made in PBS), while the low dosage group received IP injection of 25 mg/kg/day YT30 (0.2 mL in volume). Frequency of the administration was once per day and the experiment lasted 27 days after treatment started.
The body weights of the mice were recorded prior to the start of treatment and twice every week thereafter. Each mouse of every group was monitored daily for any other symptoms of side effects including change in behavior, activity or posture, areas of redness and swelling, and food and water withdrawal. Caliper measurements of the longest perpendicular tumor diameters were performed every 2 days to estimate the tumor volume; the following formula: 4π/3×(width/2)^2×(length/2) was used to calculate the three-dimensional volume of an ellipse. The tumor inhibition rate was calculated according to tumor volume: Tumor inhibition rate by size (%)=(Tumor volume of the control group−Tumor volume of the treated group)/Tumor volume of the control group×100. The mice were euthanized on the next day after the final injection and the subcutaneous tumor nodules were taken out intact and weighed. The tumor inhibition rate was calculated again according to tumor weight: Tumor inhibition rate by weight (%)=(Tumor weight of the control group−Tumor weight of the treated group)/Tumor weight of the control group×100).

In the case of `Nc1ccccc1NC(=O)CCCCCC(=O)Nc1cccc(Br)c1` [YT30], the IC50 (MOLT-4) is reported as 1.13 µM, the IC50 (Nalm-6; Homo sapiens, NALM-6, ALL (B-cell), 72 hours) is reported as 2.36 µM and the “Growth inhibition (FIG. 1)” value (Nalm-6; Nalm-6 cells, 4 μM) is reported as “significantly inhibit cell growth”. For the same compound, the IC50 (RCH-ACV) was 0.79 µM, the IC50 (MV4-11) was 4.06 µM and the IC50 (SR) was 6.89 µM. For the same compound, the IC50 (Caski) was 5 µM, the IC50 (HL60) was 1.04 µM and the IC50 (HOP-92) was 11 µM. It also gave an IC50 (HeLa) of 4.3 µM, an IC50 (HepG2) of 12.7 µM and an IC50 (MCF7) of 6.84 µM. For the same compound, the IC50 (MDA-MB-435) was 10.4 µM, the IC50 (NCI-H460) was 5.41 µM and the IC50 (OVCAR-3) was 9.17 µM. It also gave an IC50 (OVCAR-8) of 6.74 µM, an IC50 (RCH-HCV) of 0.79 µM and an IC50 (SEM cells) of 1.15 µM. The IC50 (SF-295) was 10.3 µM, the IC50 (SF-539) was 10.8 µM and the IC50 (SK-MEL-5) was 3.87 µM. For the same compound, the IC50 (SK-OV-3) was 8.09 µM, the IC50 (SW-620) was 11 µM and the IC50 (UO-31) was 10.7 µM. The IC50 (siHa) was 13.1 µM, the “Average body weight (g, x ± s) End point” value (MV4-11 cells; 25 mg/kg I.P. × 27 days) was 21.33 ± 1.26 g and the “Average body weight (g, x ± s) Initial” value (MV4-11 cells; 25 mg/kg I.P. × 27 days) was 21.61 ± 1.18 g. For the same compound, the “Body weight change (%)” value (MV4-11 cells; 25 mg/kg I.P. × 27 days) was −1.0%, the “Tumor growth Inhibition by weight (%)” value (MV4-11 cells; 25 mg/kg I.P. × 27 days) was 38.8% and the “Tumor size (mm^3)” value (MV4-11 cells; 25 mg/kg I.P. × 27 days) was 1072.31 ± 296.29 mm^3. For the same compound, the “Tumor weight (g, x ± s)” value (MV4-11 cells; 25 mg/kg I.P. × 27 days) was 1.35 ± 0.47 g, the “Tumor growth Inhibition by size (%)” value (MV4-11 cells; 25 mg/kg I.P. × 27 days (low dosage)) was 51.0% and the “Average body weight (g, x ± s) End point” value (MV4-11 cells; 50 mg/kg I.P. × 27 days) was 18.86 ± 1.38 g. The “Average body weight (g, x ± s) Initial” value (MV4-11 cells; 50 mg/kg I.P. × 27 days) was 21.02 ± 0.97 g, the “Body weight change (%)” value (MV4-11 cells; 50 mg/kg I.P. × 27 days) was −6.8% and the “Tumor growth Inhibition by weight (%)” value (MV4-11 cells; 50 mg/kg I.P. × 27 days) was 58.8%. The “Tumor size (mm^3)” value (MV4-11 cells; 50 mg/kg I.P. × 27 days) was 774.63 ± 269.10 mm^3, the “Tumor weight (g, x ± s)” value (MV4-11 cells; 50 mg/kg I.P. × 27 days) was 0.91 ± 0.27 g and the “Tumor growth Inhibition by size (%)” value (MV4-11 cells; 50 mg/kg I.P. × 27 days (high dosage)) was 64.6%.
